Experimental data published in patent US11001570B2, “6-amino-quinolinone compounds and derivatives as BCL6 inhibitors” (Boehringer Ingelheim International GmbH, priority 2016, dated 2021).

The compounds below were run against T1, BCL6::BCOR (Homo sapiens, UniProt P41182, C67R/C84N/C8Q) (assay: BCL6::BCOR ULight TR-FRET assay).
T1 construct: BCL6 (amino acids 5 to 129, with the following changes to the natural protein); made in house; host or cells: E. coli
Format: binding
From the text: Biological Methods BCL6::BCOR ULight TR-FRET Assay:
Biotinylated BCL6 protein corresponding to BCL6 (amino acids 5 to 129, with the following changes to the natural protein: C8Q, C67R, C84N) is expressed in E. coli with a carboxy-terminal Avi tag (amino acid sequence […]). The BCOR ULight peptide uses a direct carboxy-terminal ULight tag (PerkinElmer). The sequence of the peptide is CRSEIISTAPSSWVVPGP, with the amino terminus acetylated and the ULight tag attached to the cysteine. Compounds are dispensed onto assay plates (Proxiplate 384 PLUS, white, PerkinElmer) using an Access Labcyte Workstation with the Labcyte Echo 55×from a DMSO solution. For the chosen highest assay concentration of 100 μM, 150 nl of compound solution are transferred from a 10 mM DMSO compound stock solution. A series of 11 concentrations is transferred for each compound at which each concentration is fivefold lower than the previous one. DMSO is added such that every well has a total of 150 nl compound solution. 5 μL of 1 nM BCL6 protein in assay buffer (50 mM HEPES pH 7.3; 125 mM NaCl; 1 mM GSH; 0.01% Triton-X 100; 0.03% BSA) are added to the 150 nl of compounds. After 30 minutes incubation time at room temperature, 10 μL of a mix containing BCOR ULight peptide (100 nM final assay concentration) and Streptavidin-Europium (0.75 nM final assay concentration) are added. Plates are kept at room temperature. After 240 minutes incubation time the TR-FRET signal is measured in a PerkinElmer Envision HTS Multilabel Reader using the TR-FRET LANCE Ultra specs of PerkinElmer. Each plate contains negative controls (diluted DMSO instead of test compound; BCOR peptide and Streptavidin Europium mix with BCL6 protein) and positive controls (diluted DMSO instead of test compound; BCOR peptide and Streptavidin-Europium mix without BCL6 protein). Negative and positive control values are used for normalization.

IC50	SMILES
5 nM	CNC(=O)COc1cc2cc(Nc3nc(N4CCOC(C)(C)C4)ncc3Cl)ccc2n(C)c1=O [Compound I-50]
5 nM	C[C@@H]1C[C@H](C)CN(c2ncc(Cl)c(Nc3ccc4c(c3)cc(OCC(=O)OCCN3CCOCC3)c(=O)n4C)n2)C1 [Compound I-142]
7 nM	CNC(=O)COc1cc2cc(Nc3nc(N4CCC(C(=O)N5CCN(C)CC5)CC4)ncc3Cl)ccc2n(C)c1=O [Compound I-90]
4 nM	CNC(=O)COc1cc2cc(Nc3nc(N4CCC(CC(=O)O)CC4)ncc3Cl)ccc2n(C)c1=O [Compound I-93]
4 nM	CCCn1c(=O)c(OCC(=O)NC)cc2cc(Nc3nc(N4CCC(C(=O)O)CC4)ncc3Cl)ccc21 [Compound I-78]
6 nM	CNC(=O)COc1cc2cc(Nc3nc(N4CCC(F)(F)CC4)ncc3F)ccc2n(C)c1=O [Compound I-27]
10 nM	COC(=O)COc1cc2cc(Nc3nc(N4C[C@H](C)C[C@H](C)C4)ncc3Cl)ccc2n(C)c1=O [Compound I-1, methyl 2-{[6-({5-chloro-2-[cis-3,5-dimethylpiperidin-1-yl]pyrimidin-4-yl}amino)-1-methyl-2-oxo-1,2-dihydroquinolin-3-yl]oxy}acetate]
6 nM	CNC(=O)COc1cc2cc(Nc3nc(N4CCC(C(=O)N(C)C)CC4)ncc3Cl)ccc2n(CCCO)c1=O [Compound I-151, 1-(5-chloro-4-{[1-(3-hydroxypropyl)-3-[(methyl-carbamoyl)methoxy]-2-oxo-1,2-dihydroquinolin-6-yl]amino}pyrimidin-2-yl)-N,N-dimethyl-piperidine-4-carboxamide]
10 nM	CCOC(=O)CC1CCCN(c2ncc(Cl)c(Nc3ccc4c(c3)cc(OCC(=O)O)c(=O)n4C)n2)C1 (stereo not drawn) [Compound I-104]
16 nM	C[C@@H]1C[C@H](C)CN(c2ncc(Cl)c(Nc3ccc4c(c3)cc(OC[S+](C)[O-])c(=O)n4C)n2)C1 (single isomer, unassigned) [Compound I-174]
6 nM	CNC(=O)COc1cc2cc(Nc3nc(N4CCC(C(=O)NCCCCCN)CC4)ncc3Cl)ccc2n(C)c1=O [Compound I-145]
6 nM	CNC(=O)COc1cc2cc(Nc3nc(N4CCC(C(=O)N(C)CCOCCN)CC4)ncc3Cl)ccc2n(C)c1=O [Compound I-143]
11 nM	C[C@H]1CN(c2ncc(Cl)c(Nc3ccc4c(c3)cc(OCC(=O)O)c(=O)n4C)n2)CCO1 [Compound I-117]
18 nM	CNC(=O)COc1cc2cc(Nc3nc(N4C[C@H](CO)N[C@@H](C)C4)ncc3Cl)ccc2n(C)c1=O (single isomer, unassigned) [Compound I-10]
7 nM	C#CC1CCN(c2ncc(Cl)c(Nc3ccc4c(c3)cc(OCC(=O)O)c(=O)n4C)n2)CC1 [Compound I-113]
6 nM	CNC(=O)COc1cc2cc(Nc3nc(N4C[C@@H](C)O[C@@H](C)C4)ncc3Cl)ccc2n(C)c1=O [Compound I-53]
5 nM	CNC(=O)COc1cc2cc(Nc3nc(N4CCN(CCC(=O)O)C(=O)C4)ncc3Cl)ccc2n(C)c1=O [Compound I-92]
5 nM	CNC(=O)COc1cc2cc(Nc3nc(N4CCc5cn[nH]c5C4)ncc3Cl)ccc2n(C)c1=O [Compound I-67]
9 nM	C[C@@H]1C[C@H](C)CN(c2ncc(Cl)c(Nc3ccc4c(c3)cc(OCC(=O)OCCCN(C)C)c(=O)n4C)n2)C1 [Compound I-141]
4 nM	CNC(=O)COc1cc2cc(Nc3nc(N4CCN(CC(=O)O)C(=O)C4)ncc3Cl)ccc2n(C)c1=O [Compound I-61]
6 nM	CCC1CN(c2ncc(Cl)c(Nc3ccc4c(c3)cc(OCC(=O)NC)c(=O)n4C)n2)CCN1CC(F)F (stereo not drawn) [Compound I-122]
8 nM	CNC(=O)COc1cc2cc(Nc3nc(N4CCN(CC(=O)O)CC4)ncc3Cl)ccc2n(C)c1=O [Compound I-63]
11 nM	CCCn1c(=O)c(OCC(=O)NC)cc2cc(Nc3nc(N4C[C@H](C)C[C@H](C)C4)ncc3Cl)ccc21 [Compound I-79]
281 nM	CNC(=O)COc1cc2cc(Nc3nc(N4CCC(C(=O)N(C)C)CC4)ncc3Cl)c(Cl)cc2n(C)c1=O [Compound I-164]
5 nM	CN(C)C(=O)C1CCN(c2ncc(Cl)c(Nc3ccc4c(c3)cc(OCC(=O)O)c(=O)n4C)n2)CC1 [Compound I-152, 2-{[6-({5-chloro-2-[4-(dimethylcarbamoyl)piperidin-1-yl]pyrimidin-4-yl}amino)-1-methyl-2-oxo-1,2-dihydroquinolin-3-yl]oxy}acetic acid]
6 nM	CNC(=O)COc1cc2cc(Nc3nc(N4CC5CC4CC5(F)F)ncc3Cl)ccc2n(C)c1=O (stereo not drawn) [Compound I-60]

IC50	SMILES
4 nM	CNC(=O)COc1cc2cc(Nc3nc(N4CCC(F)CC4)ncc3Cl)cc(OC)c2n(C)c1=O [Compound I-98]
4 nM	CNC(=O)COc1cc2cc(Nc3nc(N4CCC(C(C)(C)C(=O)O)CC4)ncc3Cl)ccc2n(C)c1=O [Compound I-56]
9 nM	CNC(=O)COc1cc2cc(Nc3nc(N4CCCC(C)(C)C4)ncc3Cl)ccc2n(C)c1=O [Compound I-71]
7 nM	CNC(=O)COc1cc2cc(Nc3nc(N4CCC(N(C)C)CC4)ncc3Cl)ccc2n(C)c1=O [Compound I-45]
9 nM	CNC(=O)COc1cc2cc(Nc3nc(N4CC5CCCC5C4)ncc3Cl)ccc2n(C)c1=O (stereo not drawn) [Compound I-72]
11 nM	CNC(=O)COc1cc2cc(Nc3nc(N4C[C@@H](C)N(C)[C@@H](C)C4)ncc3Cl)ccc2n(C)c1=O [Compound I-48]
7 nM	CCCn1c(=O)c(OCC(=O)NC)cc2cc(Nc3nc(N4CCC(F)(F)CC4)ncc3Cl)ccc21 [Compound I-81]
23 nM	CNC(=O)COc1cc2cc(Nc3nc(N4C[C@H](F)C[C@H](F)C4)ncc3Cl)ccc2n(C)c1=O [Compound I-65]
4 nM	CNC(=O)COc1cc2cc(Nc3nc(N4CCC(F)(F)CC4)ncc3Cl)cc(OC)c2n(C)c1=O [Compound I-97]
10 nM	Cn1c(=O)c(OCC(=O)O)cc2cc(Nc3nc(N4CCc5[nH]nnc5C4)ncc3Cl)ccc21 [Compound I-116]
2 nM	CNC(=O)COc1cc2cc(Nc3nc(N4CCC[C@@H](C(=O)O)C4)ncc3Cl)cc(OC)c2n(C)c1=O [Compound I-95]
13 nM	CNC(=O)COc1cc2cc(Nc3nc(N4CC(C)(C)CC(C)(C)C4)ncc3Cl)ccc2n(C)c1=O [Compound I-24]
5 nM	C[C@@H]1C[C@H](C)CN(c2ncc(Cl)c(Nc3ccc4c(c3)cc(OCC(=O)O)c(=O)n4C)n2)C1 [Compound I-131, 2-{[6-({5-chloro-2-[cis-3,5-dimethylpiperidin-1-yl]pyrimidin-4-yl}amino)-1-methyl-2-oxo-1,2-dihydroquinolin-3-yl]oxy}-acetic acid]
7 nM	CCCn1c(=O)c(OCC(=O)NC)cc2cc(Nc3nc(N4CCC(F)CC4)ncc3Cl)ccc21 [Compound I-80]
5 nM	CCn1c(=O)c(OCC(=O)NC)cc2cc(Nc3nc(N4C[C@H](C)C[C@H](C)C4)ncc3Cl)ccc21 [Compound I-74]
7 nM	CNC(=O)COc1cc2cc(Nc3nc(N4CCC(N(C)CC(F)(F)F)CC4)ncc3Cl)ccc2n(C)c1=O [Compound I-58]
6 nM	CNC(=O)COc1cc2cc(Nc3nc(N4CCCCC4)ncc3Cl)ccc2n(C)c1=O [Compound I-19]
77 nM	COCCN(C)C(=O)COc1cc2cc(Nc3nc(N4C[C@H](C)C[C@H](C)C4)ncc3Cl)ccc2n(C)c1=O [Compound I-134]
4 nM	CNC(=O)COc1cc2cc(Nc3nc(N4CCC[C@@H](C(=O)O)C4)ncc3Cl)ccc2n(C)c1=O [Compound I-167, (3R)-1-[5-chloro-4-({1-methyl-3-[(methylcarbamoyl)methoxy]-2-oxo-1,2-dihydroquinolin-6-yl}-amino)pyrimidin-2-yl]piperidine-3-carboxylic acid]
10 nM	CNC(=O)COc1cc2cc(Nc3nc(N4CCN(CCN(C)C)C(=O)C4)ncc3Cl)ccc2n(C)c1=O [Compound I-16]
5 nM	CNC(=O)COc1cc2cc(Nc3nc(N4CCC5(CCN(C)CC5)CC4)ncc3Cl)ccc2n(C)c1=O [Compound I-36]
85 nM	C[C@@H]1C[C@H](C)CN(c2ncc(Cl)c(Nc3ccc4c(c3)cc(SCC(=O)O)c(=O)n4C)n2)C1 [Compound I-150, 2-{[6-({5-chloro-2-[cis-3,5-dimethylpiperidin-1-yl]pyrimidin-4-yl}amino)-1-methyl-2-oxo-1,2-dihydroquinolin-3-yl]sulfanyl}acetic acid]
5 nM	CC(CN(C)C)OC(=O)COc1cc2cc(Nc3nc(N4C[C@H](C)C[C@H](C)C4)ncc3Cl)ccc2n(C)c1=O (stereo partly drawn) [Compound I-140]
10 nM	CNC(=O)COc1cc2cc(Nc3nc(N4CCCC(F)(F)C4)ncc3Cl)ccc2n(C)c1=O [Compound I-29]
8 nM	CCn1c(=O)c(OCC(=O)NC)cc2cc(Nc3nc(N4CCC[C@@H](C)C4)ncc3Cl)ccc21 [Compound I-77]
